Reference: US8809360B2, “Use of a pyridine compound for the preparation of a medicament for the treatment of skin lesions” (Mitsubishi Tanabe Pharma Corporation, priority 2004, dated 2014)
Where “and” joins values, the source holds several entries; their conditions need not be identical. Equal values may be shown once.

Tested on: Human Dermal Microvascular Endothelial Cell (HDMEC)
Assay: Promoting activity in vitro on human dermal microvascular endothelial cell (HDMEC) proliferation
Assay type: cell-based
Conditions: positive control: bFGF solution 0.1 μg/mL medium
Method: The wound healing-promoting activity of test compounds were investigated in terms of the promotion activity on HDMEC proliferation in the following manner. As a HDMEC, normal adult dermal microvascular endothelial cells (Hybridoma (1996): Vol. 15 (4), pp 279-288) were used in this study.
A suspension of HDMEC mentioned above (2×10^4 cells/mL; Cryo HMVEC-Ad; trademark registered by Cambrex Inc.) were seeded on 48-well plate (250 μL/well). The cells were cultured in a proliferation medium (BletKit EGM-2-MV; trademark registered by Cambrex Inc.) for one day. After substituting an assay medium (450 μL, bFGF-, EGF- and VEGF-free BletKit EGM-2-MV; trademark registered by Cambrex Inc.) for the proliferation medium, a dimethylsulfoxide solution of the test compound (0.1 v/v %, 50 μL) was added to each well and the cells were cultured for 96 hours. After culturing, the assay medium was removed by aspiration and the residual cells were suspended in Isoton II solution (500 μL; Beckmann-Coulter Ltd.) containing 0.05% trypsin and 0.02% ethylenediaminetetraacetic acid. The suspension was diluted (11-fold) with Isoton II solution (5 mL) and the number of cells were counted by Coulter-Counter Z1 (Beckmann-Coulter Ltd.).
As a negative control group, HDMEC was cultured in the same manner, but in the absence of the test compound, as described above. […]

## Positive control: bFGF solution (0.1 μg/mL medium) used instead of the test compound solution; basic fibroblast growth factor
  Number of cells after 96 hours: 1.31 × 10^4 cells and 1.81 × 10^4 cells and 2.03 × 10^4 cells
Listed as positive control
  Number of cells after 96 hours: 1.95 × 10^4 cells
